One may read the melting point as the temperature of the solid-liquid transition.

Data on 17 molecules can be found in patent US8084492B2, “Benzofuran compound and pharmaceutical composition containing the same” (The New Industry Research Organization, priority 2004, dated 2011).

T2 sequence (Q15722 whole entry): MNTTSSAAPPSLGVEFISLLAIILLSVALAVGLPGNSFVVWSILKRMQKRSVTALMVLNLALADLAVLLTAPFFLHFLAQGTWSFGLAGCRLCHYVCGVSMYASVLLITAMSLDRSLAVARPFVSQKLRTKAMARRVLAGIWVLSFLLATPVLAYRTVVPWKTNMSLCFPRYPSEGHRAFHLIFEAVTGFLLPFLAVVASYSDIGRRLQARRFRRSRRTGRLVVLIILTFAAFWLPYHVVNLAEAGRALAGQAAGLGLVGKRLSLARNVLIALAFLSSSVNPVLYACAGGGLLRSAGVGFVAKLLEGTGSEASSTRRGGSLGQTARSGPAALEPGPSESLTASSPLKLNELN

In one data set the target is T1, human BLT2 (Homo sapiens, UniProt Q9NPC1).
T1 construct: expressed in transfected cells; host or cells: CHO cells
T1 sequence (Q9NPC1 1-358): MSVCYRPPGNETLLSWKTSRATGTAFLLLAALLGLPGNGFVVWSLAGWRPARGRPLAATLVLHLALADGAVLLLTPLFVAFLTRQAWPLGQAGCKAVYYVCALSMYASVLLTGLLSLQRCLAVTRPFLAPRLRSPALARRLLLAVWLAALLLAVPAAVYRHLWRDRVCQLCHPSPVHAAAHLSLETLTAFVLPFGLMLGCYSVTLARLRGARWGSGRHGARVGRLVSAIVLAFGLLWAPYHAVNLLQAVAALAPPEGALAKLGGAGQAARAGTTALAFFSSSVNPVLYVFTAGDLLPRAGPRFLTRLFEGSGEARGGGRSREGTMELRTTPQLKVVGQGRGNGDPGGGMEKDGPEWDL
The data set can be described thus: LTB4-induced intracellular calcium increase (Fluo-3) in CHO cells expressing human BLT2. The data set is classed as cell-based. The settings on record: CHO cells harbouring BLT2; compound 10 μM; 100 nM LTB4; fluorescence AUC in 10 min. As for the experimental part:
(§1) CHO cells harbouring a gene encoding human BLT1 or human BLT2 and functionally expressing the receptor were seeded in a 96 well plate at 4×10^4 cells/well, and cultured at 37° C. for 60 min. The culture supernatant was removed and a loading buffer (100 μl) containing 4 μM Fluo-3 (manufactured by Dojindo), 0.04% pluoronic acid (manufactured by Sigma) and 1% serum was added. The cells were cultured at 37° C. for 30 min to introduce Fluo-3 into the cells. After culture, the cells were washed with a buffer, and a buffer containing the compound of Example 1 (10 μM (final concentration)) was added, and then 100 nM (final concentration) of leukotriene B4 (LTB4) was added. Changes in the intracellular calcium ion concentration were measured with Flexstation (manufactured by Molecular Devices Corporation) as an increase in the fluorescence intensity (area under a curve in a time-course graph of fluorescence intensity in 10 min measurement). As a positive control of BLT1 and BLT2 antagonists, ZK158252, a known LTB4 inhibitor, was used.
A general note: Calcium flux is commonly read through the fluorescence of an indicator in the cells.
As to `CCN(CC)C(=O)/C=C(\C)c1cc2cccc(OC(C)c3ccccc3)c2o1` (stereo not shown) [Example 1, (E)-3-[7-(1-phenylethoxy)-benzofuran-2-yl]-but-2-enoic acid-diethylamide], the “suppression of increase in the intracellular calcium ion concentration due to LTB4 stimulation” value is given as “suppressed by the compound of Example 1 at an intensity equivalent to or greater than the suppression by ZK158252”.
Take `O=C(O)CCC/C=C1\CCCCC1/C=C/C=C/C(O)C1(CC#Cc2ccccc2)CCC1` (stereo not shown) [ZK158252, reference compound]: the “suppression of increase in the intracellular calcium ion concentration due to LTB4 stimulation” value is reported as “significantly suppressed”.

System in a further data set: not given
Assay: not given
Conditions: not given
`COc1ccc(CCNC(=O)/C=C(/C)c2c(C)oc3ccc(Cl)cc23)cc1OC` [Example 2] came in with a melting point of 150.9 to 151.5 °C.
In turn, `COc1ccc(CCNC(=O)/C=C(\C)c2c(C)oc3ccc(Cl)cc23)cc1OC` [Example 3] displayed a melting point of 73 to 76 °C.
Molecule `COc1cccc(NC(=O)/C=C(\C)c2c(C)oc3ccc(Cl)cc23)c1` [Example 4] yielded a melting point of 139 to 142 °C.
Same read-out and setting: the same measure for `COc1ccc(CCNC(=O)/C=C(\C)c2c(C)oc3ccc(Br)cc23)cc1OC` [Example 5]: 143.1 to 150 °C; for `CCN(CC)C(=O)/C=C(/c1ccc(Cl)cc1)c1cc2cc(Br)ccc2o1` [Example 6]: 106.7 to 109.8 °C.
`COc1ccc(CCNC(=O)/C=C/c2coc3ccccc23)cc1OC` [Example 9] showed a melting point of 138.1 to 140.3 °C.
In the case of `O=C(/C=C(/c1ccc(Cl)cc1)c1cc2cc(Br)ccc2o1)N1CCOCC1` [Example 10], the melting point fell in the range of 150 to 153.5 °C.
The molecule `COc1ccc(CCNC(=O)/C=C(\C)c2c(-c3ccccc3)oc3ccc(Cl)cc23)cc1OC` [Example 11] came in with a melting point of 169.1 to 171.9 °C.
The same measure, in the same setting: the same measure for `CCN(CC)C(=O)/C=C(/c1ccc(OC)cc1)c1cc2cc(Br)ccc2o1` [Example 13]: 93.5 to 96 °C.
On to `O=C(/C=C/c1coc2ccccc12)N1CCOCC1` [Example 14], for which the melting point lay within 132.1 to 134.6 °C.
`COc1ccc(CCNC(=O)/C=C(/C)c2c(C)oc3ccc(Br)cc23)cc1OC` [Example 15] yielded a melting point of 150.1 to 153.5 °C.
`COc1cccc(NC(=O)/C=C(/c2ccc(Cl)cc2)c2cc3cc(Br)ccc3o2)c1` [Example 16] yielded a melting point of 160.1 to 162.2 °C.
The molecule `COc1ccc(C(=CC(=O)NCCc2ccc(OC)c(OC)c2)c2cc3cc(Br)ccc3o2)cc1` [Example 17] returned a melting point of 112.2 to 117 °C.
`CCN(CC)C(=O)/C=C(\C)c1c(C)oc2ccc([N+](=O)[O-])cc12` [Example 20] came in with a melting point of 130 to 134 °C.
Molecule `COc1ccc(CCNC(=O)C=C(C)c2c(C)oc3ccc([N+](=O)[O-])cc23)cc1OC` [Example 21] yielded a melting point of 116.9 to 124.4 °C.

The next data set addresses T2, human BLT1 (Homo sapiens, UniProt Q15722).
T2 construct: expressed in transfected cells; host or cells: CHO cells
The data set can be described thus: LTB4-induced intracellular calcium increase (Fluo-3) in CHO cells expressing human BLT1. The data set is classed as cell-based. The note with it: CHO cells harbouring BLT1; compound 10 μM; 100 nM LTB4; fluorescence AUC in 10 min. As for the experimental part:
as §1
Consider `CCN(CC)C(=O)/C=C(\C)c1cc2cccc(OC(C)c3ccccc3)c2o1` (stereo not shown) [Example 1, (E)-3-[7-(1-phenylethoxy)-benzofuran-2-yl]-but-2-enoic acid-diethylamide], for which the “suppression of increase in the intracellular calcium ion concentration due to LTB4 stimulation” value was “weaker as compared to the effect on BLT2”.
On to `O=C(O)CCC/C=C1\CCCCC1/C=C/C=C/C(O)C1(CC#Cc2ccccc2)CCC1` (stereo not shown) [ZK158252, reference compound], for which the “suppression of increase in the intracellular calcium ion concentration due to LTB4 stimulation” value is given as “significantly suppressed”.
